Among the data in PMC12721288, “Functional expression and properties of the tick α6 homomeric nicotinic acetylcholine receptor in Xenopus laevis oocytes” (Current Research in Parasitology & Vector-borne Diseases, 2025) are EC50 and IC50 values, retold here.

SMILES strings stand for the structures. Read-outs that look alike come from different tables or passages of the source.

Format in all cases: cell-based, Ixodes ricinus
Assay [1] relates to T1, Iricα6 homomeric nicotinic acetylcholine receptor.
T1 construct: Iricα6 homomeric receptor expressed in Xenopus laevis oocytes (co-injected with C. elegans RIC-3)
Kind of assay: two-electrode voltage clamp in Xenopus oocytes, agonist dose-response. Background: Two-electrode voltage clamp holds a large cell at a set potential and records current.

The test system is the same in assay [2]. As to the kind of experiment: two-electrode voltage clamp in Xenopus oocytes, inhibition of ACh-evoked currents.
Assay [3] shares this test system. Kind of assay: two-electrode voltage clamp in Xenopus oocytes, agonist-like dose-response.

The compound `CC(=O)OCC[N+](C)(C)C` [ACh, acetylcholine] gave a concentration for a half-maximal effect (EC50) in assay [1] of 27700 ± 2440 nM. `CO[C@H]1CC=C2CCN3CCC4=C(CC(=O)OC4)[C@]23C1` [DHβE, dihydro-β-erythroidine] registered a half-inhibitory concentration (IC50) in assay [2] of 1.35 nM.

Compound `CNC1(C)C2CCC(C2)C1(C)C` (stereo not shown) [MECA, mecamylamine] gave a 50% effective concentration (EC50) in assay [3] of 12.6 nM. Take `CCN1C[C@]2(COC(=O)c3ccccc3N3C(=O)C[C@H](C)C3=O)CC[C@H](OC)[C@@]34[C@@H]5C[C@H]6[C@H](OC)[C@@H]5[C@](O)(C[C@@H]6OC)[C@@](O)([C@@H](OC)[C@H]23)[C@@H]14` [MLA, methyllicaconitine]: in assay [2] (read-out: IC50), the IC50 amounted to 8.56 nM.

As a reminder, the EC50 is the concentration at which the effect is half-maximal. Higher therefore signals a less potent agent. One may read the IC50 as the point on the concentration scale where inhibition reaches its midpoint.
